Drawing on US20160045505A1, “COMPOUNDS AND COMPOSITIONS FOR THE TREATMENT OF PARASITIC DISEASES” (NOVARTIS AG, priority 2013, published 2016), this text covers EC50 for 35 compounds.

Where two headings read alike, the source gives them in different places.

Assay [1] deals with Trypanosoma brucei Lister 427 strain, bloodstream form. The assay is described as follows: Assay for proliferation of kinetoplastid parasite Trypanosoma brucei (Cell Titer Glo, 48 hours). Type of assay: cell-based. The following applies: Trypanosoma brucei. The procedure, abridged:
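Bloodstream-form T. brucei Lister 427 in HMI-9 medium was exposed to compound (DMSO vehicle) for 48 hours at 37° C, 5% CO2. Parasite growth was read as ATP by CellTiter-Glo luminescence, with EC50 calculated from percent inhibition.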
(In ATP-based viability assays light output follows the ATP content of the culture.)

Assay [2] concerns Leishmania donovani axenic amastigote parasites. The assay is described as follows: Leishmania donovani axenic amastigote proliferation assay (Cell TiterGlo luminescence, 2 day incubation). Type of assay: cell-based. The following applies: Leishmania donovani, L. donovani axenic amastigotes; read-out: L. donovani amastigotes EC50.
Assay [3] has as its system Trypanosoma cruzi amastigotes (Tulahuen strain expressing Lac-Z) cultured in 3T3 fibroblast cells. The assay is described as follows: microbe, parasite or virus in culture. As to conditions: Trypanosoma cruzi, TULAHUEN, Fibroblast, T. cruzi amastigotes in 3T3 fibroblast cells; read-out: T cruzi EC50. Type of assay: cell-based.
The test system of assay [4] is L. donovani HU3 strain in mouse peritoneal macrophages. The assay is described as follows: Assay for proliferation of Leishmania parasites in infected mouse peritoneal macrophages (SybrGreen staining, high-content imaging, 5 days). Type of assay: cell-based, Leishmania donovani. As to conditions: Leishmania donovani, Peritoneal macrophage, L. donovani in mouse peritoneal macrophages; read-out: L. donovani Macrophage EC50.

Setting [5] is: T. brucei Lister 427 bloodstream form, read-out: T. brucei EC50.

Regarding `Cc1cccc(-c2cnc3nc(-c4cc(NC(=O)N5CCCC5)ccc4F)cn3c2)n1` [Compound 455, N-(4-fluoro-3-(6-(6-methylpyridin-2-yl)imidazo[1,2-a]pyrimidin-2-yl)phenyl)pyrrolidine-1-carboxamide], the EC50 (as a rule, the concentration that produces a half-maximal response) in assay [1] (setting [5]) was 0.134 µM; in assay [2] it was 225 nM; in assay [3], 215 nM; in assay [4], 681 nM.
As to `O=C(Nc1ccc(Cl)c(-c2cn3cc(-c4ccccn4)cnc3n2)c1)N1CCCC1` [Compound 456, N-(4-chloro-3-(6-(pyridin-2-yl)imidazo[1,2-a]pyrimidin-2-yl)phenyl)pyrrolidine-1-carboxamide], the EC50 was 0.054 µM in assay [1] (read-out: T. brucei EC50 (μM)), 42 nM in assay [2], 40 nM in assay [3] and 218 nM in assay [4].
For the compound `COc1cccc(-c2cnc3nc(-c4cc(NC(=O)c5oc(C)nc5C)ccc4F)cn3c2)n1` [Compound 458], the EC50 came to 0.12 µM in assay [1] (setting [5]), 75 nM in assay [2], 43 nM in assay [3] and 513 nM in assay [4].
On the same counts, the results for `CC(C)Nc1cnc2nc(-c3cc(NC(=O)N4CC(F)(F)C4)ccc3F)cn2c1` [Compound 460, 3,3-difluoro-N-(4-fluoro-3-(6-(isopropylamino)imidazo[1,2-a]pyrimidin-2-yl)phenyl)azetidine-1-carboxamide] are 0.164 µM, 241 nM, 182 nM and 208 nM.
In the same order, the values of `CC(C)Nc1cnc2nc(-c3cc(NC(=O)N4CC[C@@H](F)C4)ccc3F)cn2c1` [Compound 461] are 0.055 µM, 234 nM, 232 nM and 185 nM.
On the same counts, the results for `Cc1ncc(C(=O)Nc2ccc(F)c(-c3cn4cc(NC(C)C)cnc4n3)c2)o1` [Compound 462] are 0.129 µM, 174 nM, 151 nM and 403 nM.
Take `Cc1nc(C)c(C(=O)Nc2ccc(F)c(-c3cn4cc(NCC(C)C)cnc4n3)c2)o1` [Compound 463]: the EC50 in assay [1] (setting [5]) stood at 0.238 µM; in assay [2], 571 nM; in assay [3], 163 nM; in assay [4], 507 nM.
In the same order, the values of `CCC(C)Nc1cnc2nc(-c3cc(NC(=O)c4oc(C)nc4C)ccc3F)cn2c1` (centres unmarked) [Compound 464] are 0.109 µM, 470 nM, 148 nM and 672 nM.
In the same order, the values of `Cc1nc(C)c(C(=O)Nc2ccc(F)c(-c3cn4cc(NCC(C)(C)C)cnc4n3)c2)o1` [Compound 465] are 0.153 µM, 329 nM, 146 nM and 289 nM.
Consider `CN(C)c1cnc2nc(-c3cc(NC(=O)N4CC(F)(F)C4)ccc3F)cn2c1` [Compound 466], for which the EC50 is 0.044 µM in assay [1] (setting [5]), 158 nM in assay [2], 183 nM in assay [3] and 207 nM in assay [4].
On the same counts, the results for `Cc1ncc(C(=O)Nc2ccc(F)c(-c3cn4cc(N(C)C)cnc4n3)c2)o1` [Compound 467] are 0.166 µM, 147 nM, 129 nM and 266 nM.
In the same order, the values of `CN(C)c1cnc2nc(-c3cc(NC(=O)N4CC[C@@H](F)C4)ccc3F)cn2c1` [Compound 468] are 0.015 µM, 87 nM, 146 nM and 230 nM.
As for `CN(C)c1cnc2nc(-c3cc(NC(=O)N4CCC4)ccc3F)cn2c1` [Compound 469], the EC50 in assay [1] (setting [5]) was 0.055 µM; in assay [2], 143 nM; in assay [3] it was 146 nM; in assay [4], 230 nM.
In the same order, the values of `Cc1nc(C)c(C(=O)Nc2ccc(F)c(-c3cn4cc(N(C)C)cnc4n3)c2)o1` [Compound 470] are 0.159 µM, 252 nM, 148 nM and 689 nM.
As to `CCN(CC)c1cnc2nc(-c3cc(NC(=O)c4oc(C)nc4C)ccc3F)cn2c1` [Compound 471], the EC50 in assay [1] (setting [5]) was determined as 0.159 µM; in assay [2] it was 601 nM; in assay [3] it was 147 nM; in assay [4], 637 nM.
On the same counts, the results for `CC(C)CNc1cnc2nc(-c3cc(NC(=O)N4CCCC4)ccc3F)cn2c1` [Compound 472] are 0.058 µM, 210 nM, 297 nM and 737 nM.
On the same counts, the results for `CCCNc1cnc2nc(-c3cc(NC(=O)N4CCCC4)ccc3F)cn2c1` [Compound 474] are 0.203 µM, 292 nM, 478 nM and 1110 nM.
On the same counts, the results for `O=C(Nc1ccc(F)c(-c2cn3cc(NC4CCOCC4)cnc3n2)c1)N1CCCC1` [Compound 475] are 0.217 µM, 1310 nM, 9160 nM and 5980 nM.
Turning to `CC(C)Nc1cnc2nc(-c3cc(NC(=O)N4CCCC4)ccc3F)cn2c1` [Compound 476], the EC50 in assay [1] (setting [5]) turned out to be 0.042 µM; in assay [2] it was 153 nM; in assay [3] it was 152 nM; in assay [4] it was 358 nM.
In the same order, the values of `CC(C)(C)OC(=O)N[C@H]1CC[C@H](CNc2cnc3nc(-c4cc(NC(=O)N5CCCC5)ccc4F)cn3c2)CC1` [Compound 477] are 0.055 µM, 751 nM, 386 nM and 425 nM.
On the same counts, the results for `O=C(Nc1ccc(F)c(-c2cn3cc(NCCC(F)(F)F)cnc3n2)c1)N1CCCC1` [Compound 478] are 0.533 µM, 4720 nM, 5520 nM and > 16400 nM.
On the same counts, the results for `Cc1nc(C)c(C(=O)Nc2ccc(F)c(-c3cn4cc(NCc5ncc[nH]5)cnc4n3)c2)o1` [Compound 479] are 41.9 µM, > 22800 nM, > 20000 nM and > 50000 nM.
As for `Cc1nc(C)c(C(=O)Nc2ccc(F)c(-c3cn4cc(NCc5c[nH]cn5)cnc4n3)c2)o1` [Compound 480], the EC50 was 8.42 µM in assay [1] (setting [5]), > 22300 nM in assay [2], > 20000 nM in assay [3] and > 50000 nM in assay [4].
On the same counts, the results for `Cc1nc(C)c(C(=O)Nc2ccc(F)c(-c3cn4cc(NC5CCC5)cnc4n3)c2)o1` [Compound 482] are 0.494 µM, 569 nM, 547 nM and 1010 nM.
For `Cc1nc(C)c(C(=O)Nc2ccc(F)c(-c3cn4cc(N(C)C(C)C)cnc4n3)c2)o1` [Compound 483], the EC50 in assay [1] (setting [5]) is 0.07 µM; in assay [2], 169 nM; in assay [3], 74 nM; in assay [4], 196 nM.
In the case of `CC(C)OC(=O)Nc1cnc2nc(-c3cc(Nc4ccccn4)ccc3F)cn2c1` [Compound 484, isopropyl (2-(2-fluoro-5-(pyridin-2-ylamino)phenyl)imidazo[1,2-a]pyrimidin-6-yl)carbamate], the EC50 in assay [1] (setting [5]) came to 1.36 µM; in assay [2], 1480 nM; in assay [3], 361 nM; in assay [4] it was 9110 nM.
In the same order, the values of `CC(C)OC(=O)Nc1cnc2nc(-c3cc(Nc4ncccc4C(F)(F)F)ccc3F)cn2c1` [Compound 485] are > 50 µM, > 25000 nM, 1970 nM and 11500 nM.
For `CC(C)OC(=O)Nc1cnc2nc(-c3cc(Nc4ncccc4OC(F)(F)F)ccc3F)cn2c1` [Compound 487], the EC50 in assay [1] (setting [5]) is > 50 µM; in assay [2] it was > 25000 nM; in assay [3], > 16600 nM; in assay [4] it was > 50000 nM.
With `Cc1nc(C)c(C(=O)Nc2ccc(F)c(-c3cn4cc(Nc5ncccc5C(F)(F)F)cnc4n3)c2)o1` [Compound 488], the EC50 is 0.058 µM in assay [1] (setting [5]), 32 nM in assay [2], 36 nM in assay [3] and 132 nM in assay [4].
On the same counts, the results for `CC1(O)CN(c2cnc3nc(-c4cc(NC(=O)N5CCCC5)ccc4Cl)cn3c2)C1` [Compound 489] are 0.152 µM, 1770 nM, 6710 nM and 7790 nM.
As for `Cc1nc(C)c(C(=O)Nc2ccc(F)c(-c3cn4cc(N5C[C@@H](C)O[C@@H](C)C5)cnc4n3)c2)o1` [Compound 491], the EC50 in assay [1] (setting [5]) is 0.14 µM; in assay [2], 234 nM; in assay [3], 296 nM; in assay [4] it was 743 nM.
In the same order, the values of `Cc1nc(C)c(C(=O)Nc2ccc(F)c(-c3cn4cc(N5CCC[C@@H]5C(F)(F)F)cnc4n3)c2)o1` [Compound 492] are 0.472 µM, 841 nM, 310 nM and 1520 nM.
In the same order, the values of `Cc1nc(C)c(C(=O)Nc2ccc(F)c(-c3cn4cc(N5CCCC5)cnc4n3)c2)o1` [Compound 493] are 0.04 µM, 260 nM, 31 nM and 192 nM.
On the same counts, the results for `Cc1nc(C)c(C(=O)Nc2ccc(F)c(-c3cn4cc(NC5CC5)cnc4n3)c2)o1` [Compound 494] are 1.01 µM, 3520 nM, 1300 nM and 4060 nM.
`O=C(Nc1ccc(Cl)c(-c2cn3cc(N4CCCC4)cnc3n2)c1)N1CCCC1` [Compound 495]: the EC50 was 0.036 µM in assay [1] (setting [5]), 235 nM in assay [2], 55 nM in assay [3] and 233 nM in assay [4].
